Where “and” joins values, the source holds several entries; their conditions need not be identical. Equal values may be shown once.

The assay deals with T1, recombinant human GST-Syk (Homo sapiens, UniProt P43405).
T1 construct: purchased Carna Biosciences 08-176
As to the kind of experiment: Homogeneous Time-Resolved Fluorescence (HTRF) assay for the recombinant human Syk enzyme. The following applies: recombinant human GST-Syk 5 pM, ATP 25 μM, 10-dose titration 10 μM to 0.508 nM; read-out: rhSYK Activity IC50. Format: biochemical. An outline of the steps: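 GST-hSyk fusion protein phosphorylated a peptide for 45 min at room temperature. The reaction was quenched with 2 nM Eu-anti-phosphotyrosine antibody and 70 nM SA-APC in 15 mM Tris pH 7.5, 40 mM EDTA, 0.01% Tween 20. The HTRF signal was read after 30 min.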
(Time-resolved FRET reads energy transfer from a long-lived donor to a nearby acceptor.)
As to `COc1nc(Nc2cc(C)cc(-c3cn(CC(C)(O)C(C)(C)O)nn3)c2)ncc1F` (stereo not drawn) [Example 21.33, 1-(4-{3-[(5-fluoro-4-methoxypyrimidin-2-yl)amino]-5-methylphenyl}-1H-1,2,3-triazol-1-yl)-2,3-dimethylbutane-2,3-diol], the IC50 (in general, the concentration at which inhibition is half-maximal) was 66.3 nM. Turning to `Cc1cc(Nc2cc(C(F)(F)F)ccn2)nc(-c2cn(C(C)C(=O)O)nn2)c1` (racemic) [Example 5.43, 2-[4-(4-methyl-6-{[4-(trifluoromethyl)pyridin-2-yl]amino}pyridin-2-yl)-1H-1,2,3-triazol-1-yl]propanoic acid], the IC50 was 35.2 nM and 17 nM. Take `Cc1cc(Nc2cc(C(F)(F)F)ccn2)nc(-c2cn(C3CCC(C(=O)O)c4ccccc43)nn2)c1` (stereo not drawn) [Example 3.19, 4-[4-(4-methyl-6-{[4-(trifluoromethyl)pyridin-2-yl]amino}pyridin-2-yl)-1H-1,2,3-triazol-1-yl]-1,2,3,4-tetrahydronaphthalene-1-carboxylic acid]: the IC50 was determined as 16 nM. Consider `COc1ccnc(Nc2cc(C)cc(-c3cn(CC(C)(O)C(C)(C)O)nn3)c2)n1` (stereo not drawn) [Example 21.12, 1-(4-{3-[(4-methoxypyrimidin-2-yl)amino]-5-methylphenyl}-1H-1,2,3-triazol-1-yl)-2,3-dimethylbutane-2,3-diol], for which the IC50 amounted to 28.3 nM.

Take `Cc1cc(Nc2nccc(C(F)(F)F)n2)cc(-c2cn(CC(=O)N3CCOCC3(C)C)nn2)c1` [Example 5.66, N-(3-{1-[2-(3,3-dimethylmorpholin-4-yl)-2-oxoethyl]-1H-1,2,3-triazol-4-yl}-5-methylphenyl)-4-(trifluoromethyl)pyrimidin-2-amine]: the IC50 was 152 nM. Turning to `Cc1cc(Nc2nccc(C(F)(F)F)n2)cc(-c2cn(C3COCC3O)nn2)c1` (single isomer, unassigned) [Example 4.8, 4-[4-(3-methyl-5-{[4-(trifluoromethyl)pyrimidin-2-yl]amino}phenyl)-1H-1,2,3-triazol-1-yl]tetrahydrofuran-3-ol], the IC50 worked out at 35.1 nM. Take `Cc1cc(Nc2cc(C(F)(F)F)ccn2)nc(-c2cn(C3CCCC(O)C3O)nn2)c1` (stereo not drawn) [Example 10.11, 3-[4-(4-methyl-6-{[4-(trifluoromethyl)pyridin-2-yl]amino}pyridin-2-yl)-1H-1,2,3-triazol-1-yl]cyclohexane-1,2-diol]: the IC50 was determined as 3.3 nM. In the case of `Cc1cc(Nc2cc(C(F)(F)F)ccn2)nc(-c2cn(C(C)C(O)CC#N)nn2)c1` (stereo not drawn) [Example 4.3, 3-hydroxy-4-[4-(4-methyl-6-{[4-(trifluoromethyl)pyridin-2-yl]amino}pyridin-2-yl)-1H-1,2,3-triazol-1-yl]pentanenitrile], the IC50 came to 4.6 nM. Next, `Cc1cc(Nc2cc(C(F)(F)F)ccn2)nc(-c2cn(C/C=C/c3ccccc3)nn2)c1` [Example 5.35, 4-methyl-6-{1-[(2E)-3-phenylprop-2-en-1-yl]-1H-1,2,3-triazol-4-yl}-N-[4-(trifluoromethyl)pyridin-2-yl]pyridin-2-amine]: 300 nM; `Cc1cc(Nc2nccc(C(F)(F)F)n2)cc(-c2cn(CCOCCO)nn2)c1` [Example 5.49, 2-{2-[4-(3-methyl-5-{[4-(trifluoromethyl)pyrimidin-2-yl]amino}phenyl)-1H-1,2,3-triazol-1-yl]ethoxy}ethanol]: 78.8 nM. `Cc1cc(Nc2cc(C(F)(F)F)ccn2)nc(-c2cn(C3CCCCC(O)C3O)nn2)c1` (single isomer, unassigned) [Example 10.4, 3-[4-(4-methyl-6-{[4-(trifluoromethyl)pyridin-2-yl]amino}pyridin-2-yl)-1H-1,2,3-triazol-1-yl]cycloheptane-1,2-diol]: the IC50 came out at 3.3 nM.

Turning to `Cc1cc(Nc2nccc(C(F)(F)F)n2)cc(-c2cn(Cc3ccc(CC(=O)O)cc3)nn2)c1` [Example 5.2, (4-{[4-(3-methyl-5-{[4-(trifluoromethyl)pyrimidin-2-yl]amino}phenyl)-1H-1,2,3-triazol-1-yl]methyl}phenyl)acetic acid], the IC50 came to 4.4 nM. For `Cc1cc(Nc2nccc(C(F)F)n2)cc(-c2cn(CC(C)(O)CO)nn2)c1` (single isomer, unassigned) [Example 21.8, 3-[4-(3-{[4-(difluoromethyl)pyrimidin-2-yl]amino}-5-methylphenyl)-1H-1,2,3-triazol-1-yl]-2-methylpropane-1,2-diol], the IC50 was found to be 13.1 nM. On to `Cc1cc(Nc2ncc(F)c(C(F)F)n2)cc(-c2cn(CC3OC(=O)NC34CC4)nn2)c1` (single isomer, unassigned) [Example 7.34, 7-{[4-(3-{[4-(difluoromethyl)-5-fluoropyrimidin-2-yl]amino}-5-methylphenyl)-1H-1,2,3-triazol-1-yl]methyl}-6-oxa-4-azaspiro[2.4]heptan-5-one], for which the IC50 was found to be 9.9 nM. In the case of `Cc1cc(Nc2cc(C(F)(F)F)ccn2)nc(-c2cn([C@H](C)C(=O)O)nn2)c1` [Example 5.29, (2R)-2-[4-(4-methyl-6-{[4-(trifluoromethyl)pyridin-2-yl]amino}pyridin-2-yl)-1H-1,2,3-triazol-1-yl]propanoic acid], the IC50 turned out to be 166 nM. Next, `Cc1cc(Nc2cc(C(F)(F)F)ccn2)nc(-c2cn(CC(O)C(C)(C)O)nn2)c1` (stereo not drawn) [Example 10.12, 3-methyl-1-[4-(4-methyl-6-{[4-(trifluoromethyl)pyridin-2-yl]amino}pyridin-2-yl)-1H-1,2,3-triazol-1-yl]butane-2,3-diol]: 23.3 nM; `Cc1cc(Nc2cc(C(F)(F)F)ccn2)nc(-c2cn(CCO)nn2)c1` [Example 5.91, 2-[4-(4-methyl-6-{[4-(trifluoromethyl)pyridin-2-yl]amino}pyridin-2-yl)-1H-1,2,3-triazol-1-yl]ethanol]: 8.3 nM; `Cc1cc(Nc2cc(C(F)(F)F)ccn2)nc(-c2cn(CC3(O)CCCCC3O)nn2)c1` (stereo not drawn) [Example 10.10, 1-{[4-(4-methyl-6-{[4-(trifluoromethyl)pyridin-2-yl]amino}pyridin-2-yl)-1H-1,2,3-triazol-1-yl]methyl}cyclohexane-1,2-diol]: 19.6 nM.

Consider `Cc1cc(Nc2cc(C(F)(F)F)ccn2)nc(-c2cn([C@@H](C)C(=O)N3CCC[C@H]3C(=O)O)nn2)c1` [Example 3.13, 1-{(2S)-2-[4-(4-methyl-6-{[4-(trifluoromethyl)pyridin-2-yl]amino}pyridin-2-yl)-1H-1,2,3-triazol-1-yl]propanoyl}proline], for which the IC50 is 95 nM. With `COCC(O)Cn1cc(-c2cc(C)cc(Nc3nccc(C(F)(F)F)n3)c2)nn1` (racemic) [Example 5.53, 1-methoxy-3-[4-(3-methyl-5-{[4-(trifluoromethyl)pyrimidin-2-yl]amino}phenyl)-1H-1,2,3-triazol-1-yl]propan-2-ol], the IC50 was determined as 58.6 nM. Consider `Cc1cc(Nc2nccc(C(F)(F)F)n2)cc(-c2cn(CC#N)nn2)c1` [Example 5.78, [4-(3-methyl-5-{[4-(trifluoromethyl)pyrimidin-2-yl]amino}phenyl)-1H-1,2,3-triazol-1-yl]acetonitrile], for which the IC50 is 84.1 nM. Next, `Cc1cc(Nc2cc(C(F)(F)F)ccn2)nc(-c2cn(C3C=CCCCC3)nn2)c1` (stereo not drawn) [Example 9.2, 6-(1-cyclohept-2-en-1-yl-1H-1,2,3-triazol-4-yl)-4-methyl-N-[4-(trifluoromethyl)-pyridin-2-yl]pyridin-2-amine]: 54 nM. For `Cc1cc(Nc2nccc(C(F)F)n2)cc(-c2cn(CC3(C)CNC(=O)O3)nn2)c1` (single isomer, unassigned) [Example 7.32, 5-{[4-(3-{[4-(difluoromethyl)pyrimidin-2-yl]amino}-5-methylphenyl)-1H-1,2,3-triazol-1-yl]methyl}-5-methyl-1,3-oxazolidin-2-one], the IC50 was found to be 5 nM. Next, `Cc1cc(Nc2nccc(C3CC3)n2)cc(-c2cn(CC(C)(O)C(C)(C)O)nn2)c1` (stereo not drawn) [Example 21.26, 1-(4-{3-[(4-cyclopropylpyrimidin-2-yl)amino]-5-methylphenyl}-1H-1,2,3-triazol-1-yl)-2,3-dimethylbutane-2,3-diol]: 12.7 nM. With `COc1ccc(OC)c(C(O)C(C)NC(=O)C(C)n2cc(-c3cc(C)cc(Nc4cc(C(F)(F)F)ccn4)n3)nn2)c1` (stereo not drawn) [Example 1.38, N-[2-(2,5-dimethoxyphenyl)-2-hydroxy-1-methylethyl]-2-[4-(4-methyl-6-{[4-(trifluoromethyl)pyridin-2-yl]amino}pyridin-2-yl)-1H-1,2,3-triazol-1-yl]propanamide], the IC50 stood at 635 nM. Consider `Cc1cc(Nc2nccc(C(F)(F)F)n2)cc(-c2cn(C(C)C(=O)O)nn2)c1` (racemic) [Example 5.64, 2-[4-(3-methyl-5-{[4-(trifluoromethyl)pyrimidin-2-yl]amino}phenyl)-1H-1,2,3-triazol-1-yl]propanoic acid], for which the IC50 came to 41.4 nM. In the case of `Cc1cc(Nc2cc(C(F)(F)F)ccn2)nc(-c2cn(Cc3cnc(C)[nH]3)nn2)c1` [Example 5.104, 4-methyl-6-{1-[(2-methyl-1H-imidazol-5-yl)methyl]-1H-1,2,3-triazol-4-yl}-N-[4-(trifluoromethyl)pyridin-2-yl]pyridin-2-amine], the IC50 was 3.2 nM. Take `Cc1cc(Nc2cc(C(F)(F)F)ccn2)nc(-c2cn(CCOC(N)=O)nn2)c1` [Example 5.110, 2-[4-(4-methyl-6-{[4-(trifluoromethyl)pyridin-2-yl]amino}pyridin-2-yl)-1H-1,2,3-triazol-1-yl]ethyl carbamate]: the IC50 is 6.2 nM. In the case of `Cc1cc(Nc2cc(C(F)(F)F)ccn2)nc(-c2cn(Cc3c[nH]cn3)nn2)c1` [Example 5.108, 6-[1-(1H-imidazol-4-ylmethyl)-1H-1,2,3-triazol-4-yl]-4-methyl-N-[4-(trifluoromethyl)pyridin-2-yl]pyridin-2-amine], the IC50 amounted to 2.5 nM. Regarding `COC(=O)[C@@H]1CCCN1C(=O)[C@@H](C)n1cc(-c2cc(C)cc(Nc3cc(C(F)(F)F)ccn3)n2)nn1` [Example 1.55, methyl 1-{(2R)-2-[4-(4-methyl-6-{[4-(trifluoromethyl)pyridin-2-yl]amino}pyridin-2-yl)-1H-1,2,3-triazol-1-yl]propanoyl}prolinate], the IC50 amounted to 449 nM.

Source of the values: patent US9586931B2 (Merck Sharp & Dohme Corp., priority 2012, dated 2017).
